In paper PMC6868653 (Pharmacology Research & Perspectives, 2019):
Changes are numbered by the printed parent chain. Several values for one entry are separate records, joined by “and”; a condition that tells them apart may be missing. Equal entries are not always repeated. Where two headings read alike, the source gives them in different places.

Key:
hGPR132a [1] = target: T1, hGPR132a (Homo sapiens, UniProt Q9UNW8); format: cell-based; settings: for pEC50, Human GPR132a, Yeast: mean ± SD, IA = inactive, bound = top concentration tested; for Emax, Human GPR132a, Yeast: normalized to the effect of NPGly
T1 sequence (Q9UNW8 1-380): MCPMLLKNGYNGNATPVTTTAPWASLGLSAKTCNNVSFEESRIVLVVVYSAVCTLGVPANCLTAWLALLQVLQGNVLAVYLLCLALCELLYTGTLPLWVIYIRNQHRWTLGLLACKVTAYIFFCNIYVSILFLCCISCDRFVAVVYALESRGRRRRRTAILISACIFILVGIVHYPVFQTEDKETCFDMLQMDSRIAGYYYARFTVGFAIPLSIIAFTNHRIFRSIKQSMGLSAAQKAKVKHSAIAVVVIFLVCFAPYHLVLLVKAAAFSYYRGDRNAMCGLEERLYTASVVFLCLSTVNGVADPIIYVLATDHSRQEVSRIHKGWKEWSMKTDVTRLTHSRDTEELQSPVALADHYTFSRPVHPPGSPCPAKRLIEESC

hGPR132a [2] = target: T1, hGPR132a; experiment: β‐arrestin association; format: cell-based; settings: for pEC50, Human GPR132a, β‐arrestin: mean ± SD; for Emax, Human GPR132a, β‐arrestin: normalized to the effect of SB‐583831
Mouse GPR132 = target: T2, Mouse GPR132 (Mus musculus, UniProt Q9Z282); experiment: β‐arrestin association; format: cell-based; settings: for pEC50, Mouse GPR132, β‐arrestin: mean ± SD; for Emax, Mouse GPR132, β‐arrestin: normalized to the effect of SB‐583831
T2 sequence (Q9Z282 1-382): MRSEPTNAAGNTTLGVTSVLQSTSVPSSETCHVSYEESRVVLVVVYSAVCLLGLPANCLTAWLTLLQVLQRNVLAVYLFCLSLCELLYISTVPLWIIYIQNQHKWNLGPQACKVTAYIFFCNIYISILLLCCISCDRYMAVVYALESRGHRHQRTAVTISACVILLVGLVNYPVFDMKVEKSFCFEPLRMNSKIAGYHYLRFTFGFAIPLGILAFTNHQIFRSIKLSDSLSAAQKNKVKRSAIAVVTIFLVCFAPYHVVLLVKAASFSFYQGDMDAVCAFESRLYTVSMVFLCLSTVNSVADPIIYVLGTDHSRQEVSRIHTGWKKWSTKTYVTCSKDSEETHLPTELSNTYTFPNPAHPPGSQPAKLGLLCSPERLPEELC

Rat GPR132 = Rat GPR132 (Rattus norvegicus, UniProt A0A8I6A964); experiment: Yeast pheromone-response pathway reporter assay, yeast expressing rGPR132; format: cell-based; settings: for pEC50, Rat GPR132, Yeast: mean ± SD; for Emax, Rat GPR132, Yeast: normalized to the effect of 9‐HODE
hGPR132a [3] = target: T1, hGPR132a; experiment: Ca2+ microfluorimetry in RBL‐hGPR132a cells; format: cell-based; settings: 10 µmol/L ligand, mean ± SE
parental RBL cells = experiment: Ca2+ microfluorimetry in parental RBL cells; format: cell-based, rat; settings: 10 µmol/L ligand, mean ± SE
hGPR132a R203A = target: T3, hGPR132a R203A (Homo sapiens, UniProt Q9UNW8, R203A); experiment: Yeast assay, hGPR132a mutant R203A; settings: mean ± SD
T3 sequence (Q9UNW8 1-380 R203A): T1 sequence (Q9UNW8 1-380) with R203A

human CB2 = human CB2 (Homo sapiens, UniProt P34972); experiment: Yeast assay, specificity receptor human CB2; format: cell-based
CB2 = settings: tested up to 10 µmol/L; cited from earlier work
hGPR132a [4] = target: T1, hGPR132a; experiment: Yeast assay hGPR132a, antagonist mode / Schild analysis; format: cell-based; settings: agonist SB‐583831
hGPR132a Y200A = target: T4, hGPR132a Y200A (Homo sapiens, UniProt Q9UNW8, Y200A); experiment: Yeast assay, hGPR132a mutant Y200A; settings: mean ± SD
T4 sequence (Q9UNW8 1-380 Y200A): T1 sequence (Q9UNW8 1-380) with Y200A

Chain of Rat GPR132 (A0A8I6A964 1-384): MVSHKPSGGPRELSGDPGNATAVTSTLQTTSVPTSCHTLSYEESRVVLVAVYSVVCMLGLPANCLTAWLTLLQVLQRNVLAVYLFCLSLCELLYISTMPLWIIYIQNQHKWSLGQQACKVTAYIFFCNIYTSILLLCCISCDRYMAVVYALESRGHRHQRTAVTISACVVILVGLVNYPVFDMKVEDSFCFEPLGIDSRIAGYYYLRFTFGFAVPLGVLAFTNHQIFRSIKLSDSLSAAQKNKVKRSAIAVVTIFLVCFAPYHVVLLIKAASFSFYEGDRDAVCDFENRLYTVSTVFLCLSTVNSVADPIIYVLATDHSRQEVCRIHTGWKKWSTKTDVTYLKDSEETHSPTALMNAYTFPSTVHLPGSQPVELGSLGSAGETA
Chain of human CB2 (P34972 whole entry): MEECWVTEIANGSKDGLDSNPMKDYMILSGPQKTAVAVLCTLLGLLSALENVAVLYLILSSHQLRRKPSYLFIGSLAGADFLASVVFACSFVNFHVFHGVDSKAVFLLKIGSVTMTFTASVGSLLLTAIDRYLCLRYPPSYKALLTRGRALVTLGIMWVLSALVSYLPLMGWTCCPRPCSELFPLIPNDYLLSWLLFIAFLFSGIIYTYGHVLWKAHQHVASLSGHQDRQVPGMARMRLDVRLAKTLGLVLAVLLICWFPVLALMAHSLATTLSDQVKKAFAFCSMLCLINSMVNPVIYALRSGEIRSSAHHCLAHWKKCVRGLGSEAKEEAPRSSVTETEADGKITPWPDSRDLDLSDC

SMILES	pEC50, Human GPR132a, Yeast (hGPR132a [1])	Emax, Human GPR132a, Yeast (hGPR132a [1])	pEC50, Human GPR132a, β‐arrestin (hGPR132a [2])	Emax, Human GPR132a, β‐arrestin (hGPR132a [2])	pEC50, Mouse GPR132, β‐arrestin (Mouse GPR132)	pEC50, Rat GPR132, Yeast (Rat GPR132)	Emax, Rat GPR132, Yeast (Rat GPR132) [%]	Emax, Mouse GPR132, β‐arrestin (Mouse GPR132) [%]	further results
CCCCC/C=C\C/C=C\CCCCCCCC(=O)O [Linoleic acid]	–	–	–	–	–	–	–	–	EC50 (hGPR132a [1]): > 100 µM; agonist activity at hGPR132a in yeast (hGPR132a [1]; tested up to 100 µmol/L): no detectable agonist activity; EC50 (hGPR132a [2]): > 10 µM
CCCCCCCCCCCCCCCCCC(=O)NCC(=O)O [NSGly, N‐stereoylglycine]	5.1 ± 0.08 (3)	80 ± 4%	5.4 (1)	23%	<5 (1)	–	–	–	–
CCCCC/C=C\C=C\C(O)CCCCCCCC(=O)O (stereo not shown) [9‐HODE, 9‐hydroxyoctadecadienoic acid]	5.9 ± 0.14 (4)	–	–	–	5.6 ± 0.23 (5)	6.2 ± 0.12 (5)	100	97 ± 6	Ca2+ transient, peak response (hGPR132a [3]): 0.122 ± 0.016 ratio units; Ca2+ transient, peak response (parental RBL cells): 0.023 ± 0.003 ratio units
CCCCCCCCCCCCCCCC(=O)NCC(=O)O [NPGly, N‐palmitoylglycine]	6.2 ± 0.16 (7)	–	<5 (3)	14%	<5 (2)	7.0 ± 0.12 (4)	53 ± 14	11	pEC50, R203A (hGPR132a R203A): abolished responses
CCCCC/C=C\C/C=C\C/C=C\C/C=C\CCCC(=O)NCC(=O)O [NAGly, N‐arachidonoylglycine]	<4.5 (3)	38%	–	–	–	5.3 ± 0.09 (4)	87 ± 12	–	Emax, CB2, yeast (human CB2): 17±2%; pEC50, CB2, yeast (human CB2): 5.6 ± 0.3; binding to CB2 (CB2): does not bind
CCCCC/C=C\C/C=C\CCCCCCCC(=O)NCC(=O)O [NLGly, N‐linoleoylglycine]	5.8 ± 0.08 (3)	84 ± 6%	5.5 ± 0.23 (2)	39±4% and 38 ± 4%	5.3 (1)	6.5 ± 0.36 (4)	68 ± 7	40	Ca2+ transient, peak response (hGPR132a [3]): 0.138 ± 0.03 ratio units; Ca2+ transient, peak response (parental RBL cells): 0.040 ± 0.008 ratio units; pEC50, R203A (hGPR132a R203A): abolished responses
CCCCC/C=C\C/C=C\C/C=C\C/C=C\CCCC(=O)N[C@@H](Cc1ccc(O)cc1)C(=O)O [NATyr, N‐arachidonyltyrosine]	–	–	–	–	–	<4 (3)	–	–	–
CCCCCCCC/C=C\CCCCCCCC(=O)NCC(=O)O [NOGly, N‐oleoylglycine]	5.1 ± 0.24 (3)	95 ± 6%	5.6 ± 0.18 (2)	29 ± 15%	5.3 ± 0.05 (2)	–	–	44 ± 10	pEC50, R203A (hGPR132a R203A): eliminated the activity
CCCCCCCC/C=C\CCCCCCCC(=O)N[C@@H](CO)C(=O)O [NOSer, N‐oleoylserine]	5.8 ± 0.07 (4)	21 ± 5%	–	–	–	–	–	–	–
CCCCC/C=C\C/C=C\CCCCCCCC(N)=O [Linoleamide, linoleamide]	5.8 ± 0.01 (3)	79 ± 11%	5.5 (1)	22%	<5 (1)	5.9 ± 0.21 (2)	37 ± 5	–	–
CCCc1nc2c(C)cc(-c3nc4ccccc4n3C)cc2n1Cc1ccc(-c2ccccc2C(=O)O)cc1 [telmisartan]	–	–	–	–	–	–	–	–	Schild Hill slope nH (hGPR132a [4]): 1.9
CC/C=C\C/C=C\C/C=C\C/C=C\C/C=C\C/C=C\CCC(=O)NCC(=O)O [NDGly, N‐docosahexanoylglycine]	<4.4 (4)	33%	<5 (2)	–	–	–	–	–	–
CCCCCCC(C)(C)c1ccc([C@@H]2C[C@H](O)CC[C@H]2CCCO)c(O)c1 [CP‐55,940]	–	full agonists	–	–	–	–	–	–	EC50 (hGPR132a [1]): 3.16 µM; Emax (hGPR132a [1]; read-out: Emax, Human GPR132a, Yeast): 102 ± 3%; EC50 (Rat GPR132): > 3.16 µM; pEC50, Y200A (hGPR132a Y200A): abolished
